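Growth conditions: 96-well plates. Treatment: test compound, 48 hours, 5 concentrations. Analysis: linear interpolation between bracketing concentrations; unreached endpoints set to highest concentration. GI50: concentration for 50% inhibition of growth.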 Active and inactive are the calls of the source. Rule as the data show it: active = GI50 up to about 1.1 µM and inactive = higher.
Legend:
Assay in all cases: NCI anticancer screen, dose series, 48 h
[1] = test system: 786-0
[2] = test system: A549
[3] = test system: ACHN
[4] = test system: CCRF-CEM
[5] = test system: COLO 205
[6] = test system: DLD-1
[7] = test system: DMS-273
[8] = test system: EKVX
[9] = test system: HCC 2998
[10] = test system: HCT-116
[11] = test system: HCT-15
[12] = test system: HL-60
[13] = test system: HOP-62
[14] = test system: HOP-92
[15] = test system: HT-29
[16] = test system: IGROV-1
[17] = test system: K562
[18] = test system: KM-20L2
[19] = test system: KM12
[20] = test system: LOX IMVI
[21] = test system: LXFL 529
[22] = test system: M14
[23] = test system: M19-MEL
[24] = test system: MOLT-4
[25] = test system: Malme-3M
[26] = test system: NCI-H226
[27] = test system: NCI-H23
[28] = test system: NCI-H460
[29] = test system: NCI-H522
[30] = test system: OVCAR-3
[31] = test system: OVCAR-4
[32] = test system: OVCAR-8
[33] = test system: RXF 393
[34] = test system: SF-268
[35] = test system: SF-295
[36] = test system: SF-539
[37] = test system: SK-MEL-28
[38] = test system: SK-MEL-2
[39] = test system: SK-MEL-5
[40] = test system: SK-OV-3
[41] = test system: SN12C
[42] = test system: SNB-19
[43] = test system: SNB-75
[44] = test system: SNB-78
[45] = test system: SR
[46] = test system: SW-620
[47] = test system: TK-10
[48] = test system: U-251
[49] = test system: UACC-257
[50] = test system: UACC-62
[51] = test system: UO-31
[52] = test system: XF498
[53] = test system: CAKI-1
[54] = test system: OVCAR-5
[55] = test system: DMS-114
[56] = test system: HOP-18
[57] = test system: RXF 631

Measured: GI50

CCCCOP1(=O)CC(C)=C(Cl)C(C)(OC)C1 (centres undefined)
> 100 µM: [11]
inactive: [1] > 100 µM | [2] > 100 µM | [3] > 100 µM | [4] 28.4 µM | [5] > 100 µM | [6] 44.8 µM | [7] > 100 µM | [8] > 100 µM | [9] > 100 µM | [10] 61.4 µM | [12] 26.9 µM | [13] > 100 µM | [14] 43.7 µM | [15] > 100 µM | [16] > 100 µM | [17] 29.6 µM | [18] > 100 µM | [19] > 100 µM | [20] > 100 µM | [21] 45.2 µM | [22] > 100 µM | [23] > 100 µM | [24] 34.4 µM | [25] > 100 µM | [26] > 100 µM | [27] > 100 µM | [28] > 100 µM | [29] 37.9 µM | [30] > 100 µM | [31] > 100 µM | [32] 62.2 µM | [33] > 100 µM | [34] > 100 µM | [35] > 100 µM | [36] > 100 µM | [37] > 100 µM | [38] 41 µM | [39] > 100 µM | [40] > 100 µM | [41] > 100 µM | [42] > 100 µM | [43] > 100 µM | [44] > 100 µM | [45] 31.8 µM | [46] 46.7 µM | [47] > 100 µM | [48] > 100 µM | [49] > 100 µM | [50] > 100 µM | [51] > 100 µM | [52] > 100 µM

C=C1C2C[C@@H]3OC4CC5O[C@]6(CC5OC4C(C)C3OC(=O)CC3CC[C@@H]4OC5C7OC8C[C@](CCC9CC(=C)[C@H](CCC(C[C@H]1C)O2)O9)(OC7C4O3)O[C@@H]85)C[C@@H]1O[C@@]2(CC(C)[C@@H]3OC(CC(=O)CCO)C(O)C[C@@H]3O2)CC(C)[C@@H]1O6 (some centres undefined)
< 0.001 µM: [11]
active: [1] < 0.001 µM | [2] < 0.001 µM | [3] < 0.001 µM | [53] < 0.001 µM | [4] < 0.001 µM | [5] < 0.001 µM | [6] < 0.001 µM | [7] < 0.001 µM | [9] < 0.001 µM | [10] < 0.001 µM | [13] < 0.001 µM | [14] < 0.001 µM | [16] < 0.001 µM | [17] < 0.001 µM | [18] < 0.001 µM | [19] < 0.001 µM | [20] < 0.001 µM | [21] < 0.001 µM | [22] < 0.001 µM | [24] < 0.001 µM | [25] < 0.001 µM | [26] < 0.001 µM | [27] < 0.001 µM | [28] < 0.001 µM | [29] < 0.001 µM | [30] < 0.001 µM | [31] < 0.001 µM | [54] < 0.001 µM | [32] < 0.001 µM | [34] < 0.001 µM | [35] < 0.001 µM | [36] < 0.001 µM | [38] < 0.001 µM | [39] < 0.001 µM | [40] < 0.001 µM | [41] < 0.001 µM | [42] < 0.001 µM | [44] 0.00157 µM | [45] < 0.001 µM | [46] < 0.001 µM | [48] < 0.001 µM | [49] < 0.001 µM | [50] < 0.001 µM | [51] < 0.001 µM | [52] < 0.001 µM

O=C(CCC(=O)Nc1ccc(Cl)c(Cl)c1)CC(=O)c1ccc(F)cc1
inactive: [1] > 100 µM | [2] > 100 µM | [3] > 100 µM | [53] > 100 µM | [4] > 100 µM | [5] > 100 µM | [6] > 100 µM | [55] > 100 µM | [7] > 100 µM | [8] > 100 µM | [9] > 100 µM | [10] > 100 µM | [12] > 100 µM | [56] > 100 µM | [13] > 100 µM | [14] > 100 µM | [15] > 100 µM | [16] > 100 µM | [17] > 100 µM | [18] > 100 µM | [19] > 100 µM | [20] > 100 µM | [21] > 100 µM | [22] > 100 µM | [23] > 100 µM | [24] > 100 µM | [25] > 100 µM | [26] > 100 µM | [27] > 100 µM | [28] > 100 µM | [30] > 100 µM | [31] > 100 µM | [54] > 100 µM | [32] > 100 µM | [33] > 100 µM | [57] > 100 µM | [34] > 100 µM | [35] > 100 µM | [36] > 100 µM | [37] > 100 µM | [39] > 100 µM | [40] > 100 µM | [41] > 100 µM | [42] > 100 µM | [44] > 100 µM | [45] > 100 µM | [46] > 100 µM | [48] > 100 µM | [49] > 100 µM | [50] 89.3 µM | [51] > 100 µM
